The text below walks through data of patent publication US9688642B2, “Substituted pyrazines as GPR40 agonists” (Janssen Pharmaceutica NV, priority 2014, dated 2017).

The EC50 is the midpoint of the concentration-response curve.

“And” between values parts separate entries of the source, which are not always exact repeats. Equal entries are not always repeated.

For one test, the target named is human GPR40 (Homo sapiens (Human), UniProt O14842). Put plainly: GPR40 calcium flux assay, HEK293 cells stably expressing human GPR40. As to conditions: transfected HEK293 cells stably expressing human GPR40; individual determinations listed; read-out: hGPR40 Ca2+ Assay EC50. In kind it is cell-based. As for the experimental part: (§1) Compounds were tested in a calcium flux assay using transfected HEK293 cells stably expressing either human GPR40 or rat GPR40. Human GPR40 expressing cells were cultured in DMEM-High Glucose media supplemented with 10% fetal bovine serum, 1×L-Glutamine, 1× Penicillin/Streptomycin and 500 μg/mL G418. Rat GPR40 expressing cells were cultured in DMEM-High Glucose media supplemented with 10% fetal bovine serum and 1 μg/mL puromycin. Cells were plated into poly-D-lysine coated 384-well plates and cultured overnight in a 37° C. humidified tissue culture incubator under 5% CO2/90% O2 atmosphere. On the day of the experiment, the culture media was replaced with assay buffer (HBSS, 20 mM HEPES, 0.1% BSA) and the cells incubated at 37° C. for 1 h. Calcium-sensitive fluorescent dye (Fluo 8 No-Wash Calcium Dye, ABD Bioquest) was then added and the cells incubated for another 30 min at 37° C. followed by 15 min at room temperature while protected from the light. The cell plate and a plate of diluted compounds of Formula (I) were loaded into a fluorescent plate reader that added compounds onto the cells while measuring the fluorescence intensity of each well. The plate reader recorded fluorescence intensity at 1 second intervals for 8 min and provided the data for analysis in an Excel format. EC50 values were calculated using Prism (GraphPad) software.
Chain of human GPR40 (O14842 whole entry): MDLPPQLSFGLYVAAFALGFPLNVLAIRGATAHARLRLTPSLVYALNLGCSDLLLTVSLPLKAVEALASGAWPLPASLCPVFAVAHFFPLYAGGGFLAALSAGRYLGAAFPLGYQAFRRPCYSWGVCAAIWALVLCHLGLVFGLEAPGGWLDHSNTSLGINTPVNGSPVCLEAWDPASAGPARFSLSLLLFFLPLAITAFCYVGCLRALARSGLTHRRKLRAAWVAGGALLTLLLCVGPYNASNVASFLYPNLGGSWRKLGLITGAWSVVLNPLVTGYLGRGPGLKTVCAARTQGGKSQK

The target in a further test is rat GPR40 (Rattus norvegicus (Rat), UniProt Q8K3T4). The experiment in a line: GPR40 calcium flux assay, HEK293 cells stably expressing rat GPR40. Type of test: cell-based. To be noted: transfected HEK293 cells stably expressing rat GPR40; individual determinations listed; read-out: rGPR40 Ca2+ Assay EC50. The protocol:
as §1
Background: A change in cytosolic calcium serves as a functional read-out for many receptors and channels.

Chain of rat GPR40 (Q8K3T4 whole entry): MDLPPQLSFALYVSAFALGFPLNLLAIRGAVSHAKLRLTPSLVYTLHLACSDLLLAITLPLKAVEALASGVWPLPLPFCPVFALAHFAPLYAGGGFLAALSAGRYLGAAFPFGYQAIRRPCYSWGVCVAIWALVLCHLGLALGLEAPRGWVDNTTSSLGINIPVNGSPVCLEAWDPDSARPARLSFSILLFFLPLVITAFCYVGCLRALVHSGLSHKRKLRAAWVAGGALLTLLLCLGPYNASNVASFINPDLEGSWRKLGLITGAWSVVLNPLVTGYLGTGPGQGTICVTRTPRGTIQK

For the compound `COc1ccc(F)c(-c2ncc(COc3cccc([C@@H](CC(=O)O)C4CC4)c3)nc2CC(C)(C)C)c1` [Cpd 1, (3S)-3-cyclopropyl-3-[3-[[6-(2,2-dimethylpropyl)-5-(2-fluoro-5-methoxy-phenyl)pyrazin-2-yl]methoxy]phenyl]propanoic acid], the EC50 was 2 nM on human GPR40; 39 nM and 25 nM at rat GPR40.
With `CCCCc1nc(COc2cccc([C@@H](CC(=O)O)C3CC3)c2)cnc1-c1cc(OC)ccc1F` [Cpd 3, (3S)-3-[3-[[6-butyl-5-(2-fluoro-5-methoxy-phenyl)pyrazin-2-yl]methoxy]phenyl]-3-cyclopropyl-propanoic acid], the EC50 at human GPR40 was 3 nM and 2 nM; on rat GPR40, 33 nM and 26 nM.
On to `COc1ccc(F)c(-c2ncc(COc3cccc([C@@H](CC(=O)O)C4CC4)c3)nc2OCC(C)(C)C)c1` [Cpd 4, (3S)-3-cyclopropyl-3-[3-[[6-(2,2-dimethylpropoxy)-5-(2-fluoro-5-methoxy-phenyl)pyrazin-2-yl]methoxy]phenyl]propanoic acid], for which the concentration giving a half-maximal response (EC50) on human GPR40 was 9 nM and 3 nM and 2 nM; on rat GPR40 it was 13 nM (2×) and 9 nM.
In the case of `COc1ccc(F)c(-c2ncc(COc3cccc([C@@H](CC(=O)O)C4CC4)c3)nc2CC(C)C)c1` [Cpd 5, (3S)-3-cyclopropyl-3-[3-[[5-(2-fluoro-5-methoxy-phenyl)-6-isobutyl-pyrazin-2-yl]methoxy]phenyl]propanoic acid], the EC50 at human GPR40 was 3 nM and 2 nM; on rat GPR40, 12 nM and 10 nM.
Take `COc1ccc(F)c(-c2ncc(COc3cccc([C@@H](CC(=O)O)C4CC4)c3)nc2N2CC3(CCC3)C2)c1` [Cpd 6, (3S)-3-[3-[(6-[2-azaspiro[3.3]heptan-2-yl]-5-(2-fluoro-5-methoxyphenyl)pyrazin-2-yl)methoxy]phenyl]-3-cyclopropylpropanoic acid]: the EC50 at human GPR40 was 5 nM and 4 nM; on rat GPR40, 17 nM and 14 nM.
On to `COc1ccc(F)c(-c2ncc(COc3cccc([C@@H](CC(=O)O)C4CC4)c3)nc2OC2CCCCC2)c1` [Cpd 7, (3S)-3-[3-[[6-(cyclohexoxy)-5-(2-fluoro-5-methoxy-phenyl)pyrazin-2-yl]methoxy]phenyl]-3-cyclopropyl-propanoic acid], for which the EC50 was 7 nM and 6 nM at human GPR40; 29 nM and 27 nM at rat GPR40.
Turning to `COc1cc(-c2ncc(COc3cccc([C@@H](CC(=O)O)C4CC4)c3)nc2OC2CCCCC2)c(F)cn1` [Cpd 9, (3S)-3-[3-[[6-(cyclohexoxy)-5-(5-fluoro-2-methoxy-4-pyridyl)pyrazin-2-yl]methoxy]phenyl]-3-cyclopropyl-propanoic acid], the EC50 on human GPR40 is 7 nM; at rat GPR40, 20 nM and 16 nM.
Take `COc1ccc(F)c(-c2ncc(COc3cccc([C@@H](CC(=O)O)C4CC4)c3)nc2-c2cc(C)cc(C)c2)c1` [Cpd 10, (3S)-3-cyclopropyl-3-[3-[[6-(3,5-dimethylphenyl)-5-(2-fluoro-5-methoxy-phenyl)pyrazin-2-yl]methoxy]phenyl]propanoic acid]: the EC50 on human GPR40 is 8 nM and 7 nM; at rat GPR40, 33 nM and 29 nM.
Consider `COc1cc(-c2ncc(COc3cccc([C@@H](CC(=O)O)C4CC4)c3)nc2C=C(C)C)c(F)cn1` [Cpd 11, (3S)-3-cyclopropyl-3-[3-[[5-(5-fluoro-2-methoxy-4-pyridyl)-6-(2-methylprop-1-enyl)pyrazin-2-yl]methoxy]phenyl]propanoic acid], for which the EC50 at human GPR40 was 11 nM and 7 nM; at rat GPR40 it was 29 nM and 23 nM.
Turning to `COc1cc(-c2ncc(COc3cccc([C@@H](CC(=O)O)C4CC4)c3)nc2OCC(C)C)c(F)cn1` [Cpd 12, (3S)-3-cyclopropyl-3-[3-[[5-(5-fluoro-2-methoxy-4-pyridyl)-6-isobutoxy-pyrazin-2-yl]methoxy]phenyl]propanoic acid], the 50% effective concentration (EC50) at human GPR40 is 11 nM and 8 nM; on rat GPR40 it was 24 nM and 21 nM.
On to `COc1ccc(F)c(-c2ncc(COc3cccc([C@@H](CC(=O)O)C4CC4)c3)nc2OCC(C)C)c1` [Cpd 14, (3S)-3-cyclopropyl-3-[3-[[5-(2-fluoro-5-methoxy-phenyl)-6-isobutoxy-pyrazin-2-yl]methoxy]phenyl]propanoic acid], for which the EC50 is 10 nM (2×) and 9 nM on human GPR40; 16 nM and 32 nM and 31 nM and 21 nM and 18 nM at rat GPR40.
In the case of `COc1cc(-c2ncc(COc3cccc([C@@H](CC(=O)O)C4CC4)c3)nc2C2=CCCC2(C)C)c(F)cn1` [Cpd 15, (3S)-3-cyclopropyl-3-[3-[[6-(5,5-dimethylcyclopenten-1-yl)-5-(5-fluoro-2-methoxy-4-pyridyl)pyrazin-2-yl]methoxy]phenyl]propanoic acid], the EC50 is 15 nM and 7 nM on human GPR40; 21 nM and 15 nM on rat GPR40.
Take `COc1cc(-c2ncc(COc3cccc([C@@H](CC(=O)O)C4CC4)c3)nc2OC2CCCC2)c(F)cn1` [Cpd 16, (3S)-3-[3-[[6-(cyclopentoxy)-5-(5-fluoro-2-methoxy-4-pyridyl)pyrazin-2-yl]methoxy]phenyl]-3-cyclopropyl-propanoic acid]: the EC50 at human GPR40 was 11 nM and 10 nM; on rat GPR40 it was 38 nM and 36 nM.
Take `COc1ccc(F)c(-c2ncc(COc3cccc([C@@H](CC(=O)O)C4CC4)c3)nc2-c2ccccc2)c1` [Cpd 18, (3S)-3-cyclopropyl-3-[3-[[5-(2-fluoro-5-methoxy-phenyl)-6-phenyl-pyrazin-2-yl]methoxy]phenyl]propanoic acid]: the half-maximal effective concentration (EC50) is 13 nM and 10 nM at human GPR40; 105 nM and 67 nM on rat GPR40.
As to `COc1ccc(F)c(-c2ncc(COc3cccc([C@@H](CC(=O)O)C4CC4)c3)nc2OC2CCC2)c1` [Cpd 19, (3S)-3-[3-[[6-(cyclobutoxy)-5-(2-fluoro-5-methoxy-phenyl)pyrazin-2-yl]methoxy]phenyl]-3-cyclopropyl-propanoic acid], the EC50 at human GPR40 is 14 nM and 11 nM; on rat GPR40, 70 nM and 49 nM.
For `COc1ccc(F)c(-c2ncc(COc3cccc([C@@H](CC(=O)O)C4CC4)c3)nc2-c2cccc(C)c2)c1` [Cpd 20, (3S)-3-cyclopropyl-3-[3-[[5-(2-fluoro-5-methoxy-phenyl)-6-(m-tolyl)pyrazin-2-yl]methoxy]phenyl]propanoic acid], the EC50 is 15 nM and 11 nM on human GPR40; 90 nM and 78 nM on rat GPR40.
As to `COc1ccc(F)c(-c2ncc(COc3cccc([C@@H](CC(=O)O)C4CC4)c3)nc2OCC2CC2)c1` [Cpd 21, (3S)-3-cyclopropyl-3-[3-[[6-(cyclopropylmethoxy)-5-(2-fluoro-5-methoxy-phenyl)pyrazin-2-yl]methoxy]phenyl]propanoic acid], the half-maximal effective concentration (EC50) on human GPR40 was 17 nM and 12 nM; on rat GPR40 it was 65 nM and 57 nM.
`COc1ccc(F)c(-c2ncc(COc3cccc([C@@H](CC(=O)O)C4CC4)c3)nc2N2CCCCC2)c1` [Cpd 22, (3S)-3-cyclopropyl-3-[3-[[5-(2-fluoro-5-methoxy-phenyl)-6-(1-piperidyl)pyrazin-2-yl]methoxy]phenyl]propanoic acid]: the 50% effective concentration (EC50) on human GPR40 is 18 nM and 12 nM; on rat GPR40 it was 53 nM and 46 nM and 43 nM and 31 nM.
As to `COc1ccc(F)c(-c2ncc(COc3cccc([C@@H](CC(=O)O)C4CC4)c3)nc2-c2cccc(C(C)C)c2)c1` [Cpd 23, (3S)-3-cyclopropyl-3-[3-[[5-(2-fluoro-5-methoxy-phenyl)-6-(3-isopropylphenyl)pyrazin-2-yl]methoxy]phenyl]propanoic acid], the EC50 was 23 nM and 14 nM at human GPR40; 58 nM and 50 nM at rat GPR40.
`COc1ccc(F)c(-c2ncc(COc3cccc([C@@H](CC(=O)O)C4CC4)c3)nc2OC2CC(C)(C)CC(C)(C)C2)c1` [Cpd 24, (3S)-3-cyclopropyl-3-[3-[[5-(2-fluoro-5-methoxy-phenyl)-6-(3,3,5,5-tetramethylcyclohexoxy)pyrazin-2-yl]methoxy]phenyl]propanoic acid]: the EC50 at human GPR40 was 24 nM and 16 nM and 40 nM; on rat GPR40, 187 nM and 178 nM and 183 nM.
Regarding `COc1ccc(F)c(-c2ncc(COc3cccc([C@@H](CC(=O)O)C4CC4)c3)nc2-c2ccc(C(C)C)cc2)c1` [Cpd 25, (3S)-3-cyclopropyl-3-[3-[[5-(2-fluoro-5-methoxy-phenyl)-6-(4-isopropylphenyl)pyrazin-2-yl]methoxy]phenyl]propanoic acid], the half-maximal effective concentration (EC50) on human GPR40 was 23 nM and 18 nM; at rat GPR40, 45 nM and 40 nM.
Regarding `COc1ccc(F)c(-c2ncc(COc3cccc([C@@H](CC(=O)O)C4CC4)c3)nc2OC2CC(C)(C)OC(C)(C)C2)c1` [Cpd 26, (3S)-3-cyclopropyl-3-[3-[[5-(2-fluoro-5-methoxy-phenyl)-6-(2,2,6,6-tetramethyltetrahydropyran-4-yl)oxy-pyrazin-2-yl]methoxy]phenyl]propanoic acid], the concentration for a half-maximal effect (EC50) at human GPR40 is 21 nM; on rat GPR40 it was 111 nM and 108 nM.
Regarding `COc1ccc(F)c(-c2ncc(COc3cccc([C@@H](CC(=O)O)C4CC4)c3)nc2OC2CCCCCC2)c1` [Cpd 27, (3S)-3-[3-[[6-(cycloheptoxy)-5-(2-fluoro-5-methoxy-phenyl)pyrazin-2-yl]methoxy]phenyl]-3-cyclopropyl-propanoic acid], the EC50 is 28 nM and 21 nM on human GPR40; 48 nM and 34 nM at rat GPR40.
`COc1cc(-c2ncc(COc3cccc([C@@H](CC(=O)O)C4CC4)c3)nc2-c2ccc(C)s2)c(F)cn1` [Cpd 28, (3S)-3-cyclopropyl-3-[3-[[5-(5-fluoro-2-methoxy-4-pyridyl)-6-(5-methyl-2-thienyl)pyrazin-2-yl]methoxy]phenyl]propanoic acid]: the concentration giving a half-maximal response (EC50) on human GPR40 was 26 nM and 23 nM; at rat GPR40, 57 nM and 54 nM.
